Experimental data: patent publication US20110100079A1, “METHOD FOR IMPARTING STRESS TOLERANCE TO PLANT” (priority 2007, published 2011)

Legend:
Assay type in all cases: in vivo
“Momotaro” tomato [1] = assay: Example 4 salt stress tolerance imparting test (tomato, tap water + NaCl); conditions: tap water + NaCl 3510 ppm, leaf, 2 weeks
Excerpt: NaCl concentration 3510 ppm (water potential by NaCl: […]) (4) Cultivation period: two weeks (5) Plant preparation: A 50-cell tray was filled with Kureha gardening soil manufactured by Kureha Corporation (fertilizer components: N:P:K=0.4:1.9:0.6 g/kg soil), and seeds of a “Momotaro” tomato were sowed, thinly covered with Kureha gardening soil, and sufficiently irrigated to allow the seeds to sprout. When the leaves in the 2-leaf stage fully unfolded, the soil on the tomato roots was carefully washed away with running water, and a test was performed. (6) The chemicals used and the concentration of a treatment solution were as in Example 1 (7) Amount of application: 10 ml/specimen for leaf spraying, 50 ml/specimen for fertigation Method of Salt Stress Tolerance Imparting Test […]

[2] = tested on: Potato Variety: Toyoshiro; assay: Example 5 drying stress tolerance imparting test (potato variety Toyoshiro); conditions: pF 2.3, leaf, 3 weeks
Experimental: Other cultivation conditions were the same as the conditions of the drying stress test. Drying stress conditions: soil pF value: 2.3, 2.5, or 2.9, cultivation temperature: 23° C., relative humidity: 50%, illuminance: 5000 Lux (fluorescent light), light/dark cycle: 16 hours/8 hours (2) Cultivation Period: 3 weeks (3) Soil: Kureha gardening soil manufactured by Kureha Corporation (fertilizer components: N:P:K=0.4:1.9:0.6 g/kg soil) (4) The chemicals used and the amount of a treatment solution applied were the same as in Example 3. Method of Drying Stress Tolerance Imparting Test A planter (60 cm) was filled with Kureha gardening soil manufactured by Kureha Corporation (fertilizer components: N:P:K=0.4:1.9:0.6 g/kg soil) in a glass greenhouse, tubers of a “Thyoshiro” potato were cut in half: and 5 pieces thereof were planted in the planter, thinly covered with Kureha gardening soil, and sufficiently watered to allow the tubers to sprout. When the leaves in the 3-leaf stage fully unfolded, the Solarium tuberosu was relocated on a plant culture rack in an air-conditioned room, and a test was initiated. […] From immediately after the beginning of the test, a treatment solution of Table 1 was sprayed onto the leaves or applied to the underground portions once a week. […] Five specimens (per planter) were prepared for each of the test plot and the control plots, plant bodies were collected 3 weeks after the beginning of the test such that the roots were not cut, the soil was washed away with running water, the fresh plant body weights were measured, and a plant stress level and an extent of imparting plant stress tolerance were calculated according to Formula (ii) and (iii) above using the average of the weights.

“Momotaro” tomato [3] = assay: Example 2 temperature stress tolerance imparting test (tomato); conditions: 32° C., leaf, 2 weeks
Experimental: Other cultivation conditions were the same as the conditions of the temperature stress test. […] (2) Solution culture medium: […] Method of Temperature Stress Tolerance Imparting Test The temperature in a climatic chamber was controlled so as to be 10, 15, or 32° C. The environmental conditions were controlled so as to have an illuminance by a fluorescent light of 5000 Lux and a daily light-dark cycle of a 16-hour light period and a 8-hour dark period. In this test, a temperature of 23° C. at which the optimum growth was observed was regarded as a reference temperature (temperature stress-free test condition), and a stress was imposed by applying a temperature higher or lower than the reference temperature. A tomato as prepared above was planted in a 250 ml polyethylene bottle filled with the solution culture medium (½ Otsuka A formulation). A treatment solution as presented in Table 1 was sprayed onto the leaves or applied to the underground portion. […] Ten specimens were prepared for each of the test plot and the control plots, and a plant stress level and an extent of imparting plant stress tolerance were calculated according to Formula (ii) and (iii) above using as a fresh plant body weight the average of the fresh plant body weights of each specimen 2 weeks after the beginning of the test.

“Momotaro” tomato [4] = assay: Standard test: standard extent of imparting plant salt stress tolerance; conditions: 100 ppm sprayed onto leaves 10 ml/specimen, NaCl 3510 ppm in tap water, fresh weight after 2 weeks vs salt-stressed untreated control plot 1
Experimental: Standard Test (I) Plant Preparation A 50-cell tray is filled with potting soil (fertilizer components: N:P:K=0.4:1.9:0.6 (g)/kg potting soil); and seeds of a “Momotaro” tomato (Takii Co., Ltd.) are sowed, thinly covered with potting soil, and sufficiently irrigated to allow the seeds to sprout. When the leaves in the 2-leaf stage are fully unfolded, the soil on the tomato roots is washed away with running water, and a test is performed. For the potting soil, Kureha gardening soil manufactured by Kureha Corporation may be used. (II) Test Condition Setting The environmental conditions are controlled such that the temperature is 23° C., the relative humidity is 50%, the illuminance is 5000 Lux, and the daily light-dark cycle includes a 16-hour light period and an 8-hour dark period. Such environmental conditions can be obtained by, for example, controlling the temperature in a room or a climate chamber where the temperature and the relative humidity can be controlled, and controlling illuminance by a fluorescent light or the like. […] (III) Treatment with Plant Stress Tolerance Imparting Composition […] A known surfactant or a like material that barely affects the plant may be used in the preparation of an aqueous dispersion. Test plot: An aqueous solution or an aqueous dispersion of a test compound (sugar derivative-type surfactant) (concentration: 100 ppm) is sprayed onto the leaves in an amount of 10 ml per tomato specimen. […] NaCl is added to a solution culture medium (creating a salt stress), but no test compound (plant stress tolerance imparting composition) is given to the tomato. Control plot 2: No NaCl is added to a solution culture medium (creating no salt stress), and no test compound (plant stress tolerance imparting composition) is given to the tomato. (IV) Calculation of Standard Extent of Imparting Plant Salt Stress Tolerance (%) […] The plant stress level (standard plant salt stress level) attained in the above-described standard test is about 130%. In this regard, the standard plant salt stress level can be calculated according to Formula (ii)′ below.

Substance: Sucrose fatty acid ester (C18, HLB = 15) [Product of present invention 20]
- Extent of imparting plant stress tolerance (“Momotaro” tomato [1]; 100 ppm): 116%
- Extent of imparting plant stress tolerance ([2]; 100 ppm once a week): 118%
- Extent of imparting plant stress tolerance (“Momotaro” tomato [3]; 100 ppm): 115%
- Standard extent of imparting plant salt stress tolerance (“Momotaro” tomato [4]): 116%

Substance: Sucrose fatty acid ester (C18:1, HLB = 15) [Product of present invention 22]
- Extent of imparting plant stress tolerance (“Momotaro” tomato [1]; 100 ppm): 118%
- Extent of imparting plant stress tolerance (“Momotaro” tomato [1]; 200 ppm): 111%
- Extent of imparting plant stress tolerance ([2]; 100 ppm once a week): 119%
- Extent of imparting plant stress tolerance ([2]; 200 ppm once a week): 114%
- Extent of imparting plant stress tolerance (“Momotaro” tomato [3]; 100 ppm): 115%
- Extent of imparting plant stress tolerance (“Momotaro” tomato [3]; 200 ppm): 113%
- Standard extent of imparting plant salt stress tolerance (“Momotaro” tomato [4]): 118%
